US12409174B2, “Combination of zibotentan and dapagliflozin for the treatment of endothelin related diseases” (priority 2020, dated 2025)
Like-named read-outs stand apart in the source and are kept apart here. Blank lines part the entries; values can stand above or below the compound they belong to.

How the values were obtained:
[1] = system: male Wistar rats fed a 4% salt diet; test: 24 hr water and food intake, Experiment 2; type: in vivo; conditions: Exp 2; FIG. 8B and FIG. 8C
Protocol: (§1) In the second experiment (Experiment 2), the effect of zibotentan and dapagliflozin (alone or in combination) on Hct concentration and Hb was determined. Seventy-two animals were randomized on BW and Hct concentration, 2 to 3 days prior to administration of study drugs into the following groups; 1) Vehicle, 2) Zibotentan (30 mg/kg), 3) Zibotentan (100 mg/kg), 4) Dapagliflozin (3 mg/kg), 5) Zibotentan (30 mg/kg)+Dapagliflozin (3 mg/kg) and 6) Zibotentan (100 mg/kg)+Dapagliflozin (3 mg/kg). For practical reasons, the study was conducted in two consecutive slots with 36 animals (6/group) in each slot. Compounds were administered p.o. QD for seven days. Blood samples for bioanalysis were collected at 4 and 24 hr after the first dose and 24 hr after the final dose for Hct concentration and Hb analysis on day three and seven as described for exp.1. Twenty-four hour urine was collected between the third and fourth dose. 24 hr food and water intake was measured between day 2-3 and between day 6-7. With two animals per cage, food intake and water intake per animal in a cage was assessed by dividing the food intake and water intake of a cage by two.

[2] = Amount of dapagliflozin and zibotentan excreted in urine, Experiment 2; conditions: Exp 2, urine collected between days 3 and 4
Protocol: as §1

[3] = system: male Wistar rats fed a 4% salt diet; test: Effect of zibotentan and dapagliflozin on kidney and heart weight, Experiment 2; type: in vivo; conditions: Exp 2
Protocol: as §1
(§2) The data for each feature measured was checked for a normal distribution and where appropriate a log transformation was applied to data with a non-normal distribution using R. Since the data were grouped by one factor Zibotentin doses or combined therapy, a one-way ANOVA was used to analyse traits measured at a single time point (GraphPad version 8 or R statistics package emmeans) and a linear mixed effects model (nlme package) in R was used to analyse multiple measures data for body weight. The differences between groups were tested using either a Dunnett test (emmeans package in R or GraphPad v8) when comparing treated groups to the vehicle group or a Tukey comparison (emmeans package in R or Graphpad v8.) for specific pairwise comparisons of treated groups. All model assumptions were checked using the model diagnostic plots in R statistics. Results are expressed as the Mean±standard error of the Mean (SEM) for pharmacodynamic parameters and Mean±standard deviation (SD) for compound concentration in blood and urine. Significance was set at p<0.05.

[4] = system: male Wistar rats fed a 4% salt diet; test: Effect on urinary volume, glucose, Na, K, urea and creatinine in the urine, Experiment 2; type: in vivo; conditions: Exp 2; for Urine Creatinine / Urine K / Urine Na / Urine Urea / Urine volume: 24 hr urine between third and fourth dose; for Urine glucose excretion: FIG. 8A
Protocol: as §1
Plasma and Urine Albumin, Creatinine, Glucose, Urea, Potassium and Sodium levels were analyzed using an ABX Pentra 400 instrument (Horiba Medical, Irvine, California, USA) according to the manufacturers protocol.
as §2

[5] = Zibotentan blood concentrations, Experiment 1; type: in vivo, male Wistar rats; conditions: male, Wistar, rat, whole blood, oral, Exp 1; for concentration at 4 h: 4 hr post first dose
Protocol: (§3) In the first experiment (Experiment 1), the effect of zibotentan on haematocrit (Hct) concentration was determined when zibotentan was administered peroral (p.o) QD for 14 days. […] Animals were weighed daily prior to dosing throughout the experiment. Blood samples (20 μL) for bioanalysis were taken at 4 and 24 hr after the first dose via the tail vein from conscious animals and 24 hr after the last dose via retroorbital route from anesthetized animals. Blood samples were collected via tail vein (100 μL) for Hct concentration and haemoglobin (Hb) measurements, on day 7 and on day 14, 1-2 hr after dosing. Twenty-four hour urine was collected for the measurement of urinary glucose, urine volume and electrolytes between doses nine and ten. Animals were terminated 24 hr after the last dose. On the day of termination, animals were anesthetized using 5% isoflurane, and blood was collected via the retroorbital route (in heparin-coated microvette, Sarsted) and centrifuged at 3,500 rpm at 4° C. for 10 minutes, plasma was collected and stored at −80° C. degrees prior to analysis. Animals were then euthanized by the removal of the heart. Both the heart and the kidneys were extracted and weighed. From the right kidney, a 4 mm thick slice of tissue was collected and fixed in 4% formaldehyde for subsequent histological analysis and a piece of cortical kidney tissue and heart tissue was collected for gene expression analysis.
A volume of 20 μL whole blood was precipitated with 150 μL acetonitrile containing internal standard and quickly vortexed, followed by a 20 min centrifugation at 3220 g and 4° C. […] Zibotentan samples were further diluted twice and three times at a 1:10 ratio with 33% acetonitrile, to ensure all diluted samples were detectible within the calibration range.
Sample concentrations were determined against matrix-spiked calibration standards over a range of 0.010 μM-10.0 μM for dapagliflozin and 0.75 μM-376 μM for zibotentan, applying weighted linear regression (1/X^2) using Waters TargetLynx software version XS V4.2 SCN986. […] Analytical bias was <15% over the concentration range for both analytes.
Separation was achieved using the following elution gradient: 0 min to 1.5 min, 4% B ramping up to 95% B; 1.5 min to 2.3 min, kept at 95% B; 2.3 min to 2.4 min, 95% B to 4% B and kept at 4% B until 2.7 min. The flow rate was 0.7 mL/min.

[6] = system: male Wistar rats on 4% salt diet; test: Effect of zibotentan on kidney and heart weight, Experiment 1; type: in vivo
Protocol: as §3
Significance was set at p<0.05.

[7] = Exp 1, Zibo 30 mg/kg p.o. QD 14 days
[8] = Exp 1, Zibo 100 mg/kg p.o. QD 14 days
[9] = Exp 1, Zibo 300 mg/kg p.o. QD 14 days
[10] = Exp 1, zibotentan 100 mg/kg, 14 days

Amount of dapagliflozin excreted in urine ([2]; Dapa 3 mg/kg p.o. QD): 0.198 µmol | Heart weight ([3]; Dapa 3 mg/kg p.o. QD 7 days): 0.85 g | Heart/tibia length ([3]; Dapa 3 mg/kg p.o. QD 7 days): 22.08 mg/mm | Kidney weight ([3]; Dapa 3 mg/kg p.o. QD 7 days): 2.01 g | Kidney/tibia length ([3]; Dapa 3 mg/kg p.o. QD 7 days): 51.96 mg/mm
Compound: CCOc1ccc(Cc2cc([C@@H]3O[C@H](CO)[C@@H](O)[C@H](O)[C@H]3O)ccc2Cl)cc1 [Dapa, (1S)-1,5-anhydro-1-{4-chloro-3-[(4-ethoxyphenyl)methyl]phenyl}-D-glucitol]
Water and food intake compared to vehicle [1]: increased | 24-hour urine volume and urea excretion compared to vehicle [4]: increased | Urine Na, K and creatinine compared to vehicle [4]: No change | Urine Creatinine ([4]; Dapa 3 mg/kg p.o. QD): 76.42 µmol | Urine K ([4]; Dapa 3 mg/kg p.o. QD): 1.40 mmol | Urine Na ([4]; Dapa 3 mg/kg p.o. QD): 12.60 mmol | Urine Urea ([4]; Dapa 3 mg/kg p.o. QD): 7.43 mmol | Urine volume ([4]; Dapa 3 mg/kg p.o. QD): 43.13 mL | Urine glucose excretion [4]: significantly increased

Compound: COc1nc(C)cnc1NS(=O)(=O)c1cccnc1-c1ccc(-c2nnco2)cc1 [Zibo, N-(3-methoxy-5-methylpyrazin-2-yl)-2-[4-(1,3,4-oxadiazol-2-yl)phenyl]pyridine-3-sulfonamide]
Water and food intake compared to vehicle [1]: unchanged | concentration at 24 h ([5]; 30 mg/kg, Zibo 30 mg/kg p.o. QD 14 days, 24 hr post last dose): 7.39 ± 10.4 µM | concentration at 4 h ([5]; 30 mg/kg, Zibo 30 mg/kg p.o. QD): 53.8 ± 17.4 µM | concentration at 24 h ([5]; 30 mg/kg, Zibo 30 mg/kg p.o. QD, 24 hr post first dose): 4.68 ± 3.93 µM | concentration at 24 h ([5]; 100 mg/kg, Zibo 100 mg/kg p.o. QD 14 days, 24 hr post last dose): 39 ± 32.4 µM | concentration at 4 h ([5]; 100 mg/kg, Zibo 100 mg/kg p.o. QD): 134 ± 43.8 µM | concentration at 24 h ([5]; 100 mg/kg, Zibo 100 mg/kg p.o. QD, 24 hr post first dose): 39.1 ± 38.1 µM | concentration at 24 h ([5]; 300 mg/kg, Zibo 300 mg/kg p.o. QD 14 days, 24 hr post last dose): 249 ± 193 µM | concentration at 4 h ([5]; 300 mg/kg, Zibo 300 mg/kg p.o. QD): 247 ± 46 µM | concentration at 24 h ([5]; 300 mg/kg, Zibo 300 mg/kg p.o. QD, 24 hr post first dose): 176 ± 108 µM | Amount of zibotentan excreted in urine ([2]; Zibo 30 mg/kg p.o. QD): 2.17 µmol | Amount of zibotentan excreted in urine ([2]; Zibo 100 mg/kg p.o. QD): 3.21 µmol | Heart weight ([3]; Zibo 30 mg/kg p.o. QD 7 days): 0.96 g | Heart/tibia length ([3]; Zibo 30 mg/kg p.o. QD 7 days): 24.75 mg/mm | Kidney weight ([3]; Zibo 30 mg/kg p.o. QD 7 days): 2.05 g | Kidney/tibia length ([3]; Zibo 30 mg/kg p.o. QD 7 days): 52.49 mg/mm | Heart weight compared to vehicle, with or without normalizing to tibia length ([3]; Zibo 30 mg/kg, seven days): increased | Heart weight ([3]; Zibo 100 mg/kg p.o. QD 7 days): 0.93 g | Heart/tibia length ([3]; Zibo 100 mg/kg p.o. QD 7 days): 23.82 mg/mm | Kidney weight ([3]; Zibo 100 mg/kg p.o. QD 7 days): 1.90 g | Kidney/tibia length ([3]; Zibo 100 mg/kg p.o. QD 7 days): 48.20 mg/mm | Kidney/tibia length [6]: 54.00 ± 0.80 mg/mm | Heart weight [6, 7]: 1.00 ± 0.02 g | Heart/tibia length [6, 7]: 25.00 ± 0.47 mg/mm | Kidney weight [6, 7]: 2.13 ± 0.04 g | Heart weight [6, 8]: 1.05 ± 0.01 g | Heart/tibia length [6, 8]: 27.00 ± 0.37 mg/mm | Kidney weight [6, 8]: 2.16 ± 0.05 g | Kidney/tibia length [6, 8]: 55.0 ± 1.65 mg/mm | Heart weight [6, 9]: 0.98 ± 0.00 g | Heart/tibia length [6, 9]: 25.00 ± 0.24 mg/mm | Kidney/tibia length [6, 9]: 57.0 ± 1.39 mg/mm | Heart weight compared to vehicle [6, 10]: increase | Heart weight increase after normalizing with tibia length [6, 10]: not statistically significant | Kidney weight with or without normalizing with tibia length compared to vehicle ([6]; Exp 1, zibotentan 300 mg/kg, 14 days): increase | 24-hour urine volume and urea excretion compared to vehicle [4]: No difference | Urine Na, K and creatinine compared to vehicle [4]: No change | Urine glucose excretion [4]: no effect | Urine Creatinine ([4]; Zibo 30 mg/kg p.o. QD): 71.33 µmol | Urine K ([4]; Zibo 30 mg/kg p.o. QD): 1.27 mmol | Urine Na ([4]; Zibo 30 mg/kg p.o. QD): 10.67 mmol | Urine Urea ([4]; Zibo 30 mg/kg p.o. QD): 4.61 mmol | Urine volume ([4]; Zibo 30 mg/kg p.o. QD): 19.08 mL | Urine Creatinine ([4]; Zibo 100 mg/kg p.o. QD): 68.18 µmol | Urine K ([4]; Zibo 100 mg/kg p.o. QD): 1.16 mmol | Urine Na ([4]; Zibo 100 mg/kg p.o. QD): 10.03 mmol | Urine Urea ([4]; Zibo 100 mg/kg p.o. QD): 4.11 mmol | Urine volume ([4]; Zibo 100 mg/kg p.o. QD): 19.08 mL
